This is an account of results in ChEMBL document CHEMBL5614405 (J Med Chem, 2024).

Molecules are shown by their SMILES. Active and inactive are the calls of the source. The rule behind the calls is not given here.

Data set [1] can be described thus: Toxicity in chicken embryo chorioallantoic membrane assessed as irritation score at 1.55 mM measured after 5 mins by microscopic analysis relative to Netarsudil. The class given is tissue-based, Gallus gallus. The conditions noted are these: in vivo, 1550 µM.
The target in data set [2] is Rho-associated protein kinase 2 (Homo sapiens, UniProt O75116). The data set can be described thus: Inhibition of ROCK2 (unknown origin) incubated for 60 mins in presence of ATP by mobility shift assay.
The test system of data set [3] is Oryctolagus cuniculus. The data set is described as follows: Anti-glaucoma activity in methylcellulose-induced acute intraocular hypertensive New Zealand rabbit model assessed as reduction in intraocular pressure at 1.55 mM,TOP administration on conjunctival sac measured for 5 to 7 hrs. The conditions noted are these: time 5-7 hrs. The class given is functional, organism-based.

Data set [4] concerns the target Rho-associated protein kinase 1 (Homo sapiens, UniProt Q13464). The data set is described as follows: Inhibition of ROCK1 (unknown origin) incubated for 10 mins in presence of ATP by mobility shift assay.
Data set [5] deals with Oryctolagus cuniculus. The data set is described as follows: Anti-glaucoma activity in methylcellulose-induced acute intraocular hypertensive New Zealand rabbit model assessed as reduction in intraocular pressure at 1.55 mM,TOP administration on conjunctival sac measured for 1 to 4 hrs. The class given is functional, organism-based. As to conditions: time 1-4 hrs.
Data set [6] can be described thus: Toxicity in chicken embryo chorioallantoic membrane assessed as irritation score at 1.55 mM measured after 5 mins by microscopic analysis relative to Latanoprost. The class given is tissue-based, Gallus gallus. The conditions noted are these: in vivo, 1550 µM.
Data set [7] concerns Oryctolagus cuniculus. The data set is described as follows: Anti-glaucoma activity in methylcellulose-induced acute intraocular hypertensive New Zealand rabbit model assessed as reduction in intraocular pressure at 1.55 mM,TOP administration on conjunctival sac measured upto 24 hrs relative to Netarsudil. The class given is functional, organism-based.
Data set [8] is described as follows: Toxicity in New Zealand rabbit assessed as appearance of conjunctival congestion by measuring ocular irritation score at 0.028 % TOP administration on left eye measured after 6 days by draize eye irritation test. The data set is classed as tissue-based, Oryctolagus cuniculus. As to conditions: in vivo, topical_or_ocular, 144 h, time 6 day.
Data set [9] relates to Mus musculus. The data set can be described thus: Anti-glaucoma activity in magnetic microbead induced occlusion C57BL/6J mouse model assessed as reduction in intraocular pressure at 441.27 uM,TOP administration on right eye measured after 1 hr by tonometric analysis. The data set is classed as functional, organism-based.
Data set [10] can be described thus: Toxicity in New Zealand rabbit assessed as appearance of conjunctival congestion by measuring ocular irritation score at 0.028 % TOP administration on left eye measured after 4 days by draize eye irritation test. The class given is tissue-based, Oryctolagus cuniculus. The conditions noted are these: in vivo, topical_or_ocular, 96 h, time 4 day.
Data set [11] is described as follows: Toxicity in chicken embryo chorioallantoic membrane assessed as irritation score at 1.55 mM measured after 5 mins in presence of methyl 3-(nitrooxy)benzoate by microscopic analysis. The class given is tissue-based, Gallus gallus. As to conditions: in vivo, 1550 µM.
Data set [12] can be described thus: Toxicity in New Zealand rabbit assessed as appearance of conjunctival congestion by measuring ocular irritation score at 0.028 % TOP administration on left eye measured after 2 days by draize eye irritation test. The conditions noted are these: in vivo, topical_or_ocular, 48 h, time 2 day. The class given is tissue-based, Oryctolagus cuniculus.
Data set [13] is described as follows: Toxicity in New Zealand rabbit assessed as appearance of conjunctival congestion by measuring incidence of ocular irritation at 0.028 % TOP administration on left eye measured for 5 days by draize eye irritation test. The data set is classed as tissue-based, Oryctolagus cuniculus. The conditions noted are these: in vivo, topical_or_ocular, 120 h, time 5 day.

Data set [14] can be described thus: Toxicity in New Zealand rabbit assessed as appearance of conjunctival congestion by measuring ocular irritation score at 0.028 % TOP administration on left eye measured after 3 days by draize eye irritation test. The class given is tissue-based, Oryctolagus cuniculus. As to conditions: in vivo, topical_or_ocular, 72 h, time 3 day.
Data set [15] in a line: Toxicity in New Zealand rabbit assessed as appearance of conjunctival congestion by measuring ocular irritation score at 0.028 % TOP administration on left eye measured after 1 day by draize eye irritation test. As to conditions: in vivo, topical_or_ocular, 24 h. The class given is tissue-based, Oryctolagus cuniculus.
Data set [16] has as its system Mus musculus. The data set is described as follows: Anti-glaucoma activity in magnetic microbead induced occlusion C57BL/6J mouse model assessed as increase in retinal ganglion cell population at 441.27 uM,TOP administrated on right eye thrice a day for 21 days by immunofluorescence based confocal microscopic analysis. The class given is functional, organism-based. As to conditions: time 21.0 day.

A short description of data set [17]: Toxicity in New Zealand rabbit assessed as appearance of conjunctival congestion by measuring ocular irritation score at 0.028 % TOP administration on left eye measured after 5 days by draize eye irritation test. The data set is classed as tissue-based, Oryctolagus cuniculus. As to conditions: in vivo, topical_or_ocular, 120 h, time 5 day.
Data set [18] is described as follows: Toxicity in New Zealand rabbit assessed as appearance of conjunctival congestion by measuring ocular irritation score at 0.028 % TOP administration on left eye measured after 7 days by draize eye irritation test. The data set is classed as tissue-based, Oryctolagus cuniculus. As to conditions: in vivo, topical_or_ocular, 168 h, time 7 day.

Sequence of Rho-associated protein kinase 2 (O75116 whole entry): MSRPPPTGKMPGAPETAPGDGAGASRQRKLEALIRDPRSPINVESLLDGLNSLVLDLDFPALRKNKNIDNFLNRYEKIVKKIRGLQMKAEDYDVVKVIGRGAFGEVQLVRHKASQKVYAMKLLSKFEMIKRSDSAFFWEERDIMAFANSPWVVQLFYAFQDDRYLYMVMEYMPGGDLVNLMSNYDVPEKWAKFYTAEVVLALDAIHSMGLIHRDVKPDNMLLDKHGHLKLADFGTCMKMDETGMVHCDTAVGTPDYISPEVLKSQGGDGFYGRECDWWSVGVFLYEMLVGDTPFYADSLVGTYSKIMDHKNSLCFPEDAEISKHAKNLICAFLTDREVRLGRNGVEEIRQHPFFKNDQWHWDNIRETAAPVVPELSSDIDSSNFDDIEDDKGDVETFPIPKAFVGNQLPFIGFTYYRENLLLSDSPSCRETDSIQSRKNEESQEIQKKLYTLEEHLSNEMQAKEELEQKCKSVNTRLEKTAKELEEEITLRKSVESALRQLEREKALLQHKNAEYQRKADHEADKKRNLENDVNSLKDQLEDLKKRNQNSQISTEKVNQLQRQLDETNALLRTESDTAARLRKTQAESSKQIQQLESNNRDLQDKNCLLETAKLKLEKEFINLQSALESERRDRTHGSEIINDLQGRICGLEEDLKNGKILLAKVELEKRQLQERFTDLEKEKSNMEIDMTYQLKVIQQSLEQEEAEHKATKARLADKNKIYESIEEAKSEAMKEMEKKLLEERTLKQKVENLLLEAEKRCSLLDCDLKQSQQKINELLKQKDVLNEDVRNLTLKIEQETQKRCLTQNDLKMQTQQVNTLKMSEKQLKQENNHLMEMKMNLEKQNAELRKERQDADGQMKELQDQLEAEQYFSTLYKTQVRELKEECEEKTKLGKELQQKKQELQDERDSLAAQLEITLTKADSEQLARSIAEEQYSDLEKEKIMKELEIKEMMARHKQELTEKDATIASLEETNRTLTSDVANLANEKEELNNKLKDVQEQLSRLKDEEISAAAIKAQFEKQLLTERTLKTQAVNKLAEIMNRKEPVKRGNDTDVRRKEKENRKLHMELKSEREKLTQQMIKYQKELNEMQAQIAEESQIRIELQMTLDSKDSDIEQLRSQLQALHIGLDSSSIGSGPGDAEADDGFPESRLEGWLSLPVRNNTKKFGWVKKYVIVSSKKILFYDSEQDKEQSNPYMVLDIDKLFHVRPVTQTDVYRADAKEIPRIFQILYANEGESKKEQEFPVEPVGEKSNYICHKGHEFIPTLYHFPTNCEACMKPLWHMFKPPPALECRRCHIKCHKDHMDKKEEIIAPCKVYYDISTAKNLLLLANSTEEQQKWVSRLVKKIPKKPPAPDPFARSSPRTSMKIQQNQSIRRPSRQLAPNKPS
Sequence of Rho-associated protein kinase 1 (Q13464 whole entry): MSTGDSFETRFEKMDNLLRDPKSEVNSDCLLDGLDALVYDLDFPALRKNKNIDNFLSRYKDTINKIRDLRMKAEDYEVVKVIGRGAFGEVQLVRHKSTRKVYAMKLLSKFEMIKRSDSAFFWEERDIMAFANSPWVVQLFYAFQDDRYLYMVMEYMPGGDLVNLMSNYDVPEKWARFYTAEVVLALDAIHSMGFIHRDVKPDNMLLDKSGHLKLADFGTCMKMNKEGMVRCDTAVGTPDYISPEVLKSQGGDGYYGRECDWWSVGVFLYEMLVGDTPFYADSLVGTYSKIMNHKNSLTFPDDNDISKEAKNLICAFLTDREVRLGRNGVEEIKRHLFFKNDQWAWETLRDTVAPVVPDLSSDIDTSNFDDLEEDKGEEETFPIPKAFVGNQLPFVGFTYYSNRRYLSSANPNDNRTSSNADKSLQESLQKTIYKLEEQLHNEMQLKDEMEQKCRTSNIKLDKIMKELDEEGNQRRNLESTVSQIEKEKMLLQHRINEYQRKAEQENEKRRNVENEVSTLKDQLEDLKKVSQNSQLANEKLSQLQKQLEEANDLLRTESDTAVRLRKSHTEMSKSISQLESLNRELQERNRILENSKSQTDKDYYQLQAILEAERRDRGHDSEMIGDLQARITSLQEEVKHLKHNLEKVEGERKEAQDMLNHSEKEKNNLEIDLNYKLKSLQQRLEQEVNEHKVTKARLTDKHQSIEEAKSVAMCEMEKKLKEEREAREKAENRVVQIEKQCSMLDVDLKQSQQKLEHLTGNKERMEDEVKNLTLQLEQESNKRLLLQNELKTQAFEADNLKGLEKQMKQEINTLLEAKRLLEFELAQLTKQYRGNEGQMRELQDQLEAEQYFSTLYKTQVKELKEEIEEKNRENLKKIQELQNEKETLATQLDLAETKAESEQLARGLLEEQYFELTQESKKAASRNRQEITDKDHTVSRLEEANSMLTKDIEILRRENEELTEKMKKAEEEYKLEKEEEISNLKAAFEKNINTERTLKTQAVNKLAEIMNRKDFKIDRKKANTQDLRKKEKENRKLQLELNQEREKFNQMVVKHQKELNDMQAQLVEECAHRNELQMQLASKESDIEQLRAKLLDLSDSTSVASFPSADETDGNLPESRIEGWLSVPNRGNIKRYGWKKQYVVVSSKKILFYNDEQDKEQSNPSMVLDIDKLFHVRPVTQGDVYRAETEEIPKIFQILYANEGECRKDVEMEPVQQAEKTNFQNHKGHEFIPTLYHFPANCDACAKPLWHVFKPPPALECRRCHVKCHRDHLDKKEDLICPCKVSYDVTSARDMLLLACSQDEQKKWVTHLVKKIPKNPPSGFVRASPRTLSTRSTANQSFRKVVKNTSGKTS

For orientation: IC50 means the point on the concentration scale where inhibition reaches its midpoint. Consider `CS(=O)(=O)O.CS(=O)(=O)O.NCC(C(=O)Nc1ccc2cnccc2c1)c1ccc(COC(=O)c2cccc(CO[N+](=O)[O-])c2)cc1` (centres undefined), for which the Activity entry in data set [1] was “Toxic”. The IC50 in data set [2] stood at 1.48 nM; in data set [4] it was 2.54 nM. In addition, the result in the data set with Oryctolagus cuniculus [3] and with Oryctolagus cuniculus [5] was Active.

Turning to `NCC(C(=O)Nc1ccc2cnccc2c1)c1ccc(COC(=O)CCCCO[N+](=O)[O-])cc1` (centres undefined), the IC50 in [2] amounted to 5.15 nM; in data set [4], 29 nM.

As for `NCC(C(=O)Nc1ccc2cnccc2c1)c1ccc(COC(=O)CCCCCO[N+](=O)[O-])cc1` (centres undefined), the figures for the IC50 in data set [2] and in data set [4] were 5.27 nM and 22.5 nM, respectively.

Regarding `O=C(CCC/C=C\C[C@@H]1[C@@H](CC[C@@H](O)CCc2ccccc2)[C@H](O)C[C@@H]1O)OCCCCO[N+](=O)[O-]` [LATANOPROSTENE BUNOD], in [6], the Activity entry is “Toxic”.

As to `NC[C@H](C(=O)Nc1ccc2cnccc2c1)c1ccc(COC(=O)c2cccc(CO[N+](=O)[O-])c2)cc1`, the IC50 in [2] stood at 25.3 nM; in data set [4] it was 35.4 nM.

On to `CS(=O)(=O)O.CS(=O)(=O)O.NCC(C(=O)Nc1ccc2cnccc2c1)c1ccc(COC(=O)CCCO[N+](=O)[O-])cc1` (centres undefined), for which, in [1], the Activity result is on record as “Toxic”. Also, the IC50 in data set [2] stood at 2.51 nM; in [4] it was 4.94 nM. For the same compound, in the data set on Oryctolagus cuniculus [7], the result was Active.

Consider `C[C@H]1CNCCCN1S(=O)(=O)c1cccc2cncc(F)c12`, for which the IC50 in [2] stood at 13.1 nM.

`NCC(C(=O)Nc1ccc2cnccc2c1)c1ccc(COC(=O)CCC(=O)O[C@@H]2CO[C@@H]3[C@H]2OC[C@@H]3O[N+](=O)[O-])cc1` (some centres undefined): the results for the IC50 in [2] and in data set [4] were 8.56 nM and 28.6 nM, respectively.

In the case of `Cc1ccc(C(=O)OCc2ccc([C@@H](CN)C(=O)Nc3ccc4cnccc4c3)cc2)c(C)c1`, the Activity in data set [8] is 1.33; in data set [10], 3.67; in data set [11], “Non-Toxic”; in [12], 3.67; in [13], 100%; in [14], 3. In addition, the Activity in data set [15] turned out to be 3.33; in data set [17] it was 2.33; in [18], 1. Besides, the outcome in the data set with Mus musculus [9] and in the data set with Mus musculus [16] was Active.

`CS(=O)(=O)O.CS(=O)(=O)O.NCC(C(=O)Nc1ccc2cnccc2c1)c1ccc(COC(=O)c2ccc(CO[N+](=O)[O-])cc2)cc1` (centres undefined): in [1], the Activity result is given as “Toxic”. In addition, the IC50 in data set [2] came out at 0.83 nM; in [4], 1.48 nM. The outcome in the data set on Oryctolagus cuniculus [5] was Active.
